Reference: PubChem BioAssay (NCI)
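48-hour exposure; five concentrations; linearly interpolated endpoints. At the GI50, growth is halved. TGI denotes the concentration required for complete inhibition of growth.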

Key:
Assay in all cases: NCI anticancer screen, dose series, 48 h
[1] = tested on: 786-0 renal
[2] = tested on: BT-549 breast
[3] = tested on: CAKI-1 renal
[4] = tested on: DU-145 prostate
[5] = tested on: HCC-2998 colon
[6] = tested on: HL-60(TB) leukemia
[7] = tested on: IGROV1 ovarian
[8] = tested on: K-562 leukemia
[9] = tested on: MDA-MB-435
[10] = tested on: MOLT-4 leukemia
[11] = tested on: OVCAR-5 ovarian
[12] = tested on: PC-3 prostate
[13] = tested on: SK-MEL-28 melanoma
[14] = tested on: SNB-75 CNS
[15] = tested on: T-47D breast
[16] = tested on: U251 CNS
[17] = tested on: UO-31 renal
[18] = tested on: SF-539 CNS

Compound: COc1cc(C2S/C(=C/c3ccccc3)C(=O)N2c2ccccn2)cc(OC)c1OC (stereo unspecified)
- TGI [1]: 31.4 µM
- TGI [2]: 39 µM
- TGI [3]: 52.3 µM
- TGI [4]: 31.9 µM
- TGI [5]: 32.8 µM
- TGI [6]: > 100 µM
- TGI [7]: 29.9 µM
- TGI [8]: > 100 µM
- TGI [9]: 29.3 µM
- TGI [10]: > 100 µM
- TGI [11]: 41.2 µM
- TGI [12]: > 81.7 µM
- TGI [13]: > 74 µM
- TGI [14]: 39.7 µM
- TGI [15]: 36.3 µM
- TGI [16]: 28.1 µM
- TGI [17]: 28.8 µM

Compound: O=c1cc(-c2cccc(Br)c2)[nH]c2cc3c(cc12)OCO3
- TGI [1]: 12.9 µM
- TGI [2]: 14.4 µM
- TGI [4]: 18.1 µM
- TGI [5]: 63 µM
- TGI [6]: > 100 µM
- TGI [7]: 11.8 µM
- TGI [8]: > 100 µM
- TGI [9]: 3.02 µM
- TGI [10]: > 100 µM
- TGI [11]: > 100 µM
- TGI [12]: > 100 µM
- TGI [18]: 6.58 µM
- TGI [13]: > 100 µM
- TGI [14]: 10.5 µM
- TGI [15]: 36.5 µM
- TGI [16]: 11.4 µM
- TGI [17]: 37.9 µM

Compound: NNC(=O)CSc1nnc(CCCCCCCCc2nnc(SCC(=O)NN)o2)o1
- TGI [1]: > 100 µM
- TGI [2]: > 100 µM
- TGI [3]: > 100 µM
- TGI [4]: > 100 µM
- TGI [5]: > 100 µM
- TGI [6]: > 100 µM
- TGI [7]: > 100 µM
- TGI [8]: > 100 µM
- TGI [9]: > 100 µM
- TGI [10]: > 100 µM
- TGI [11]: > 100 µM
- TGI [12]: > 100 µM
- TGI [13]: > 100 µM
- TGI [14]: > 100 µM
- TGI [15]: > 100 µM
- TGI [16]: > 100 µM
- TGI [17]: > 100 µM

Compound: C=C(C)COC(=O)COCC(=O)OCC(=C)C
- TGI [1]: > 100 µM
- TGI [2]: > 100 µM
- TGI [3]: > 100 µM
- TGI [4]: > 100 µM
- TGI [5]: > 100 µM
- TGI [7]: > 100 µM
- TGI [8]: > 100 µM
- TGI [9]: > 100 µM
- TGI [10]: > 100 µM
- TGI [11]: > 100 µM
- TGI [12]: > 100 µM
- TGI [13]: > 100 µM
- TGI [14]: > 100 µM
- TGI [15]: > 100 µM
- TGI [16]: > 100 µM
- TGI [17]: > 100 µM

Compound: COc1ccc(NC(C)=O)cc1N1C(=O)/C(=C\c2cccc(Oc3ccccc3)c2)SC1c1ccccc1 (stereo unspecified)
- TGI [1]: > 100 µM
- TGI [2]: > 100 µM
- TGI [3]: > 100 µM
- TGI [4]: > 100 µM
- TGI [5]: > 100 µM
- TGI [6]: 37.9 µM
- TGI [7]: > 100 µM
- TGI [8]: > 100 µM
- TGI [9]: > 100 µM
- TGI [10]: 82.6 µM
- TGI [11]: > 100 µM
- TGI [12]: > 100 µM
- TGI [13]: > 100 µM
- TGI [14]: > 100 µM
- TGI [15]: > 100 µM
- TGI [16]: > 100 µM
- TGI [17]: > 100 µM

Compound: CCCNC(=O)c1cc(NC(=O)c2cc(NC(=O)CCS(=O)(=O)OC)cn2C)cn1C
- TGI [1]: > 71.7 µM
- TGI [2]: 8.54 µM
- TGI [3]: > 75.3 µM
- TGI [4]: 72.2 µM
- TGI [5]: > 100 µM
- TGI [7]: > 56.5 µM
- TGI [8]: > 100 µM
- TGI [9]: 68.8 µM
- TGI [10]: > 87.8 µM
- TGI [11]: > 100 µM
- TGI [12]: 98.9 µM
- TGI [13]: > 100 µM
- TGI [14]: 48.4 µM
- TGI [15]: 42.1 µM
- TGI [16]: > 100 µM
- TGI [17]: > 100 µM

Compound: CC1OC(n2cnc3c(N)nc(Cl)nc32)C(C)(O)C1O (stereo unspecified)
- TGI [1]: > 25 µM
- TGI [2]: > 25 µM
- TGI [3]: > 25 µM
- TGI [4]: > 25 µM
- TGI [5]: > 25 µM
- TGI [6]: > 25 µM
- TGI [7]: > 25 µM
- TGI [8]: > 25 µM
- TGI [9]: > 25 µM
- TGI [10]: > 25 µM
- TGI [11]: > 25 µM
- TGI [18]: > 25 µM
- TGI [14]: 15.2 µM
- TGI [15]: > 25 µM
- TGI [17]: > 25 µM

Compound: COc1cc(N(CCC#N)CCC#N)ccc1/C(N=Nc1cccc(C)c1)=N\NC(=O)c1ccc(C)cc1
- TGI [1]: > 100 µM
- TGI [2]: > 100 µM
- TGI [3]: > 100 µM
- TGI [4]: > 100 µM
- TGI [5]: > 100 µM
- TGI [6]: > 100 µM
- TGI [7]: > 100 µM
- TGI [8]: > 100 µM
- TGI [9]: > 100 µM
- TGI [10]: > 100 µM
- TGI [11]: > 100 µM
- TGI [12]: > 100 µM
- TGI [13]: > 100 µM
- TGI [15]: > 100 µM
- TGI [16]: > 100 µM
- TGI [17]: > 100 µM

Compound: N=c1oc2ccc(Cl)cc2cc1C(=O)NC1CCCCC1
- TGI [1]: > 100 µM
- TGI [2]: > 100 µM
- TGI [3]: > 100 µM
- TGI [4]: > 100 µM
- TGI [5]: 89.1 µM
- TGI [6]: > 100 µM
- TGI [7]: > 100 µM
- TGI [8]: > 100 µM
- TGI [9]: > 100 µM
- TGI [10]: > 100 µM
- TGI [11]: > 100 µM
- TGI [12]: > 100 µM
- TGI [18]: > 100 µM
- TGI [13]: > 100 µM
- TGI [14]: > 100 µM
- TGI [15]: > 100 µM
- TGI [16]: > 100 µM

Compound: N#CCCN(CCC#N)c1ccc(/C=C2\N=C(c3ccccc3)N(c3ccccc3)C2=O)cc1
- TGI [1]: > 100 µM
- TGI [2]: > 100 µM
- TGI [4]: > 100 µM
- TGI [6]: > 100 µM
- TGI [7]: > 100 µM
- TGI [8]: > 100 µM
- TGI [9]: > 100 µM
- TGI [10]: > 100 µM
- TGI [11]: > 100 µM
- TGI [12]: > 100 µM
- TGI [18]: > 100 µM
- TGI [13]: > 100 µM
- TGI [15]: > 100 µM
- TGI [16]: > 100 µM
- TGI [17]: > 100 µM

Compound: CC(=O)Oc1ccc2c3c1[C@@H]1O[C@@H]1c1cccc(c1-3)[C@@H]1O[C@H]21
- TGI [1]: 3.14 µM
- TGI [2]: 3.98 µM
- TGI [3]: 3.07 µM
- TGI [4]: 4.18 µM
- TGI [6]: 4.87 µM
- TGI [8]: > 100 µM
- GI50 [9]: 1.79 µM
- TGI [9]: 3.38 µM
- TGI [10]: > 100 µM
- TGI [11]: 3.42 µM
- TGI [14]: 3.07 µM
- TGI [15]: 5.42 µM
- TGI [17]: 2.91 µM

Compound: O=C(CC(C(=O)c1cccs1)c1ccccc1)c1ccccc1O (stereo unspecified)
- TGI [1]: > 38.4 µM
- TGI [2]: > 100 µM
- TGI [3]: > 67.3 µM
- TGI [4]: > 100 µM
- TGI [5]: > 100 µM
- TGI [6]: > 44 µM
- TGI [7]: > 57.3 µM
- TGI [8]: 46.6 µM
- TGI [10]: > 38.4 µM
- TGI [11]: > 100 µM
- TGI [12]: > 100 µM
- TGI [18]: > 100 µM
- TGI [13]: > 100 µM
- TGI [14]: > 55.7 µM
- TGI [15]: > 40 µM
- TGI [16]: > 30.2 µM
- TGI [17]: > 100 µM

Compound: C[Si](C)(C)C#CCOC=C1CC1
- TGI [1]: > 100 µM
- TGI [2]: > 100 µM
- TGI [3]: > 100 µM
- TGI [4]: > 100 µM
- TGI [5]: > 100 µM
- TGI [6]: > 100 µM
- TGI [7]: > 100 µM
- TGI [8]: > 100 µM
- TGI [10]: > 100 µM
- TGI [11]: > 100 µM
- TGI [12]: > 100 µM
- TGI [18]: > 100 µM
- TGI [13]: > 100 µM
- TGI [14]: > 100 µM
- TGI [15]: > 100 µM
- TGI [16]: > 100 µM
- TGI [17]: > 100 µM

Compound: C1COCCOP2(N3CC3)=NP(N3CC3)(=NP(N3CC3)(N3CC3)=N2)OCCOCCO1 (stereo unspecified)
- TGI [1]: > 100 µM
- TGI [2]: > 100 µM
- TGI [3]: > 100 µM
- TGI [4]: > 100 µM
- TGI [6]: > 100 µM
- TGI [7]: > 100 µM
- TGI [8]: > 100 µM
- TGI [9]: > 100 µM
- TGI [10]: > 100 µM
- TGI [11]: > 100 µM
- TGI [12]: > 100 µM
- TGI [18]: > 100 µM
- TGI [14]: > 100 µM
- TGI [15]: > 100 µM
- TGI [16]: > 100 µM
- TGI [17]: > 100 µM
